Test results published in PMC5630020 (Genes & Development, 2017).

B1: E. coli SspA, wild type (natural protein, UniProt P0ACA3 1-212, looked up)
chain: MAVAANKRSVMTLFSGPTDIYSHQVRIVLAEKGVSFEIEHVEKDNPPQDLIDLNPNQSVPTLVDRELTLWESRIIMEYLDERFPHPPLMPVYPVARGESRLYMHRIEKDWYTLMNTIINGSASEADAARKQLREELLAIAPVFGQKPYFLSDEFSLVDCYLAPLLWRLPQLGIEFSGPGAKELKGYMTRVFERDSFLASLTEAEREMRLGRS
notes: also called wild-type SspA; E. coli SspA homodimer

Key:
E. coli SspA homodimer = E. coli SspA homodimer (Escherichia coli, UniProt P0ACA3); assay type: binding
SEC = biological target: the molecule itself; assay: SEC

| Molecule | DRaCALA (E. coli SspA homodimer) | stoichiometry N (SEC) |
| --- | --- | --- |
| Nc1nc2c(ncn2[C@@H]2O[C@H](COP(=O)(O)OP(=O)(O)O)[C@@H](OP(=O)(O)OP(=O)(O)O)[C@H]2O)c(=O)[nH]1 [ppGpp] | only very weak binding requiring ppGpp concentrations in the high micromolar range |  |
| B1 |  | 2 |
